Test results as given in ChEMBL document CHEMBL4419178, “Yap1 inhibitors that target the interaction of yap1 with oct4” (2018).
Calls of active or inactive are those of the source.

Experiments:
[1] = target: Transcriptional coactivator YAP1 (Homo sapiens) (UniProt P46937); assay: Inhibition of YAP1 in human A549 cells assessed as reduction in c-Myc protein expression at 10 uM incubated for 72 hrs by Western blot analysis; assay type: cell-based
[2] = target: Transcriptional coactivator YAP1 (Homo sapiens) (UniProt P46937); assay: Inhibition of YAP1 in human NCI-H1650 cells assessed as reduction in Sox2 protein expression at 10 uM incubated for 72 hrs by Western blot analysis; assay type: cell-based
[3] = target: Transcriptional coactivator YAP1 (Homo sapiens) (UniProt P46937); assay: Inhibition of YAP1 in human NCI-H1650 cells assessed as reduction in c-Myc protein expression at 10 uM incubated for 72 hrs by Western blot analysis; assay type: cell-based
[4] = target: Transcriptional coactivator YAP1 (Homo sapiens) (UniProt P46937); assay: Inhibition of YAP1 in human NCI-H1650 cells assessed as reduction in PDK2 protein expression at 10 uM incubated for 72 hrs by Western blot analysis; assay type: cell-based
[5] = target: Transcriptional coactivator YAP1 (Homo sapiens) (UniProt P46937); assay: Inhibition of YAP1 in human A549 cells assessed as reduction in Sox2 protein expression at 10 uM incubated for 72 hrs by Western blot analysis; assay type: cell-based
[6] = target: Transcriptional coactivator YAP1 (Homo sapiens) (UniProt P46937); assay: Inhibition of YAP1 in human A549 cells assessed as reduction in PDK2 protein expression at 10 uM incubated for 72 hrs by Western blot analysis; assay type: cell-based
NCI-H2170 = assay: Cytotoxicity in human NCI-H2170 cells assessed as reduction in cell viability at 5 to 50 uM incubated for 96 hrs by MTT assay; assay type: functional, cell-based
NCI-H1650 [7] = assay: Cytotoxicity in human NCI-H1650 cells assessed as reduction in cell viability at 1 to 20 uM incubated for 72 hrs by MTT assay; assay type: functional, cell-based
NCI-H2286 = assay: Cytotoxicity in human NCI-H2286 cells assessed as reduction in cell viability at 5 to 50 uM incubated for 96 hrs by MTT assay; assay type: functional, cell-based
A549 = assay: Cytotoxicity in human A549 cells assessed as reduction in cell viability at 1 to 20 uM incubated for 72 hrs by MTT assay; assay type: functional, cell-based
NCI-H1650 [8] = assay: Inhibition of self-renewal capacity in stem-like side-population cells of human NCI-H1650 cells assessed as reduction in number of spheres at 5 to 50 uM incubated for 10 days by sphere formation assay; assay type: functional, cell-based
NCI-H1703 [9] = assay: Inhibition of adherence-independent cell growth in human NCI-H1703 cells at 10 uM incubated for 33 days; assay type: functional, cell-based
NCI-H1650 [10] = assay: Inhibition of adherence-independent cell growth in human NCI-H1650 cells at 10 uM incubated for 33 days; assay type: functional, cell-based
NCI-H1703 [11] = assay: Inhibition of adherence-independent cell growth in human NCI-H1703 cells at 5 uM incubated for 33 days; assay type: functional, cell-based
NCI-H1650 [12] = assay: Inhibition of adherence-independent cell growth in human NCI-H1650 cells at 5 uM incubated for 33 days; assay type: functional, cell-based

Transcriptional coactivator YAP1 (Homo sapiens), sequence (P46937 whole entry): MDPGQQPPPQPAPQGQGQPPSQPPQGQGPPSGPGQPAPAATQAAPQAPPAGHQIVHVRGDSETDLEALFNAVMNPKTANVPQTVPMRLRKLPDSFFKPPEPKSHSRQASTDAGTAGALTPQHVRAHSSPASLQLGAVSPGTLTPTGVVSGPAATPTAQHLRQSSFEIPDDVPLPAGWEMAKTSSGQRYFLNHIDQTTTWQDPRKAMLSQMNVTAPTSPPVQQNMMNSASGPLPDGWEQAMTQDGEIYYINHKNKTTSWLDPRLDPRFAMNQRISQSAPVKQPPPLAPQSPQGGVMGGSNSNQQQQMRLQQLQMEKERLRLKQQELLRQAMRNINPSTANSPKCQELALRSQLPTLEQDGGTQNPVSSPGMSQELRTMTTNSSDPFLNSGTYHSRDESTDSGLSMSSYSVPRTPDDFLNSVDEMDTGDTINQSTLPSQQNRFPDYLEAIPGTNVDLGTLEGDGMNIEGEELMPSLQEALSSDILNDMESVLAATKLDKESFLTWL

COC(=O)[C@H](Cc1ccc(OCc2ccccc2)cc1)NC(=O)CC1CCN(C(=O)Cc2ccc(NC(=O)OC(C)(C)C)cc2)CC1
active: inhibition [1] | inhibition [2] | inhibition [3] | inhibition [4] | inhibition [5] | inhibition [6]

COC(=O)[C@H](Cc1ccc(OCc2ccccc2)cc1)NC(=O)CC1CCN(C(=O)CCc2cc(OC)c(OC)c(OC)c2)CC1
active: Activity (NCI-H2170) | Activity (NCI-H1650 [7]) | Activity (NCI-H2286) | Activity (A549) | inhibition (NCI-H1650 [8])

COC(=O)[C@H](Cc1ccc(OCc2ccccc2)cc1)NC(=O)CC1CCN(C(=O)c2ccc(NC(=O)OC(C)(C)C)cc2)CC1
active: inhibition (NCI-H1703 [9]) | inhibition [1] | inhibition (NCI-H1650 [10]) | inhibition [2] | inhibition (NCI-H1703 [11]) | inhibition (NCI-H1650 [12]) | inhibition [3] | inhibition [4] | inhibition [5] | inhibition [6]
